Several values for one entry are separate records, joined by “and”; a condition that tells them apart may be missing. Identical values can stand only once.

Data on three molecules can be found in patent US20080026417A1, “ASSAYS FOR TRICHOMONAL AND OTHER HYDROLASES” (priority 2002, published 2008).

For test [1], the system named is trichomonal hydrolases. The test can be described thus: Experiment 6 part 2: inhibition of trichomonal hydrolases added to filtered vaginal fluid. The class given is biochemical, Trichomonas vaginalis. The arrangement: key: 0: Yellow; 1: Peach; 2: Orange; 3: Light to medium pink; 4: Dark pink or red; 5: Fuchsia; 6: Purple. Particulars: ZRR-MNA, 20 μg/mL antipain or 1 mM chymostatin. On the procedure: (§1) Substrate/inhibitor combinations were prepared by mixing 4 μL of 100 mM ZRR-MNA, 20 μL of 1M HEPES buffer, 56 μL of deionized water, and 20 μL of either antipain, chymostatin, or deionized water. Filtered vaginal fluid was prepared from each specimen as follows: the swab was placed in a cuvette containing 200 μL of diluent and the swab was rotated in the diluent to thoroughly mix the swab contents into the diluent. The swab was removed, the swab head was broken off into a microfuge tube, and the liquid remaining in the swab head was forced out by centrifugation. The fluid extracted from the swab was combined with the liquid in the cuvette, and the total volume of fluid was filtered using a centrifuge filter unit to remove particulate matter.
(§2) For each specimen, 4 μL of vaginal fluid filtrate was mixed with 4 μL of each of the three substrate/inhibitor combinations in separate microwells; one well contained 20 μg/mL antipain, one contained 1 mM chymostatin, and one had no inhibitor. After ten minutes, 4 μL of color developer solution was added to each well.
Trichomonal hydrolases were added to each of the filtered vaginal fluid specimens—10 μL of trichomonal hydrolase preparation added to 90 μL vaginal fluid filtrate—and the above experiment was repeated.

In test [2] the test system is non-trichomonal hydrolases present in normal vaginal fluid supernatants. Description: Experiment 6 part 1: inhibition of non-trichomonal hydrolases in filtered normal vaginal fluid. The class given is biochemical, human. The arrangement: key: 0: Yellow; 1: Peach; 2: Orange; 3: Light to medium pink; 4: Dark pink or red; 5: Fuchsia; 6: Purple. Particulars: uninfected, ZRR-MNA, 20 μg/mL antipain or 1 mM chymostatin. The procedure: as §1, §2

In test [3] the test system is trichomonal hydrolases. Description: Experiment 13: hydrolysis of peptide substrates by trichomonal hydrolases at low pH, no vaginal fluid. The arrangement: key: −: No red color produced; +: Clearly visible red color produced; ++: Moderately intense red color produced; +++: Very intense red color produced. Particulars: without vaginal fluid; threonine buffer pH 2.4; 2 mM substrate solution; 10 min 25° C.; Fast Garnet. The class given is biochemical, Trichomonas vaginalis. The gist of the method:
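Peptide substrates incubated in duplicate for 10 min at 25° C. with trichomonal hydrolase diluted 1:9 in 2 mM L-cysteine; negative controls received L-cysteine alone. SDS/acetate and Fast Garnet added, and color visually scored after 5 min on a color scale.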

Test [4] concerns trichomonal hydrolases. The test can be described thus: Experiment 14: substrate comparison on swabs with vaginal fluid plus trichomonal hydrolases at low pH. Format: biochemical, Trichomonas vaginalis. The note with it: threonine pH 2.4, 0-9 scale. The procedure:
For each pair of vaginal fluid specimens from a donor, one swab was rubbed on one substrate film and the other swab was rubbed on a different substrate film; two substrates were compared at a time. The concentrations of the substrates varied from 150 mM to 320 mM in the solutions used to make the substrate films, but each specific comparison matched equimolar concentrations of substrates (as specified in Tables 14.1, 14.2, and 14.3 below). In the swabs, the substrate was diluted by vaginal fluid and buffer, and the final concentration of substrate in the swab tip was estimated to be 1/60 of the concentration of substrate in the solutions used to make the films. Immediately after each swab was rubbed on a substrate film, a 35-μL drop of threonine buffer was applied to the plastic where the substrate film had been, and the swab was rubbed on the same spot again until the buffer was absorbed into the swab. The swabs were left lying on the plastic for ten minutes, then each swab was rubbed on a Fast Red or Fast Garnet film. For the comparisons between ZLR and ZVR, and between VLR-MNA and ZRRR-MNA, films made with 10 mM Fast Garnet were used; for the comparison between ZVR and VLR-MNA, films made with 70 mM Fast Red were used. The intensity of pink color that developed on each swab after two minutes was visually scored using the 0-9 color scale presented in Table 11.1 above; fractional scores such as 1.3 were used when color intensities between swabs differed only slightly. In this part of the experiment, 20 μL of trichomonal hydrolases was applied to the tip of each swab containing vaginal fluid just prior to running the assay. Otherwise, the procedure was exactly the same as for the swabs containing only vaginal fluid.

The subject of test [5] is trichomonal hydrolases. The test can be described thus: Experiment 13: hydrolysis of peptide substrates by trichomonal hydrolases at low pH in vaginal fluid supernatant. The class given is biochemical, Trichomonas vaginalis. The arrangement: key: −: No red color produced; +: Clearly visible red color produced; ++: Moderately intense red color produced; +++: Very intense red color produced. Particulars: Fast Garnet. On the procedure: Forty μL of each substrate was pipetted into duplicate wells of a microtiter plate. The plate was covered with tape, placed into a 25° C. incubator, and allowed to warm. A diluted enzyme mixture was prepared by mixing one part (v/v) freshly-thawed trichomonal hydrolase solution to nine parts 2 mM L-cysteine solution. Forty μL of this mixture was added to one well of each pair of duplicate wells. For negative controls, 40 μL of 2 mM L-cysteine was added to the second well in each pair of duplicate wells. The plate was returned to the incubator and incubated for ten minutes. Forty μL of SDS/acetate solution was added to each well, followed by 40 μL of Fast Garnet solution. The intensity of color that developed in each well after five minutes was visually scored using the color scale presented in Table 13.1.
Of the nine substrates hydrolyzed by trichomonal hydrolases to produce an intense pink color (scoring ++ or +++) in the absence of vaginal fluid supernatant, only four produced intense pink color when vaginal fluid supernatant was present.

The subject of test [6] is trichomonal hydrolases. The test can be described thus: Experiment 11: hydrolysis of ZRRR-MNA by trichomonal hydrolases at pH 1.9-3.4, read on swab. Format: biochemical, Trichomonas vaginalis. Particulars: Fast Red RL, 0-9 scale. On the procedure: The 200 mM ZRRR-MNA solution was mixed with 25% hydroxypropylcellulose solution and additional ethanol to a final concentration of 80 mM ZRRR-MNA and 5% hydroxypropyl-cellulose. Substrate films were made by pipetting 1 μL of a mixture over a circular area approximately ¼-inch in diameter on a sheet of Mylar, and drying under a stream of dry nitrogen. An 80-μL aliquot of a malic acid buffer solution, at each pH listed above, was pipetted into each of eight separate round-bottom wells on a microtiter plate. Eighty μL of 10% trichomonal hydrolase solution was added to each well and mixed thoroughly. Half of the volume in each well (80 μL) was then transferred to a second set of eight wells, into which the swabs were then inserted. After the 80 μL of liquid was absorbed from each well into the respective swab, each swab was rubbed on a substrate film. Ten minutes after the swabs were exposed to substrate, each swab was rubbed on an indicator (Fast Red) film. The intensity of pink color that developed on each swab after one minute was visually scored in 0.5 unit increments using the 0-9 color scale presented in Table 11.1 below. To determine the final pH of the eight mixtures of trichomonal hydrolases and buffer, the pH of the liquid remaining in the first set of eight wells was measured using a pH meter. The experiment was repeated omitting the lowest pH and highest pH wells.

Test [7] concerns endogenous hydrolases present in normal vaginal fluid. Description: Experiment 14: substrate comparison on swabs with normal vaginal fluid at low pH. Format: biochemical, human. Particulars: Normal (n = 3); 150 mM substrate film solution; threonine pH 2.4; Fast Red; 0-9 scale. On the procedure:
Mixtures were made of the 400 mM substrate stock solutions, 25% hydroxy-propylcellulose solution, 200 mM L-cysteine, along with additional ethanol to a final concentration of 150-320 mM substrate, 20 mM L-cysteine, and 2-5% hydroxypropyl-cellulose. Substrate films were made by pipetting 1 μL of a mixture over a circular area approximately […] in diameter on a sheet of Mylar, and drying under a stream of dry nitrogen. The dried films were stored in a container with desiccant until used.
For each pair of vaginal fluid specimens from a donor, one swab was rubbed on one substrate film and the other swab was rubbed on a different substrate film; two substrates were compared at a time. The concentrations of the substrates varied from 150 mM to 320 mM in the solutions used to make the substrate films, but each specific comparison matched equimolar concentrations of substrates (as specified in Tables 14.1, 14.2, and 14.3 below). […] The intensity of pink color that developed on each swab after two minutes was visually scored using the 0-9 color scale presented in Table 11.1 above; fractional scores such as 1.3 were used when color intensities between swabs differed only slightly.

In the case of `CC(C)C[C@H](NC(=O)[C@@H](NC(=O)N[C@@H](Cc1ccccc1)C(=O)O)[C@@H]1CCN=C(N)N1)C(=O)N[C@H](C=O)Cc1ccccc1` [Chymostatin, chymostatin], the “Hydrolase activity color score with inhibitor” value in test [1] (Donor A filtrate supplemented with trichomonal hydrolases) turned out to be 3.5; in test [1] (Donor B filtrate supplemented with trichomonal hydrolases) it was 3.5; in test [1] (Donor C filtrate supplemented with trichomonal hydrolases) it was 3.5; in test [1] (Donor D filtrate supplemented with trichomonal hydrolases), 4; in test [1] (Donor E filtrate supplemented with trichomonal hydrolases), 3; in test [1] (Donor F filtrate supplemented with trichomonal hydrolases) it was 3. The “Hydrolase activity color score with inhibitor” value in test [2] (Donor A) was 0; in test [2] (Donor B), 0; in test [2] (Donor C), 0; in test [2] (Donor D), 2; in test [2] (Donor E), 0; in test [2] (Donor F), 0.

With `CC(=O)O.COc1cc(NC(=O)[C@H](CCCN=C(N)N)NC(=O)[C@H](CCCN=C(N)N)NC(=O)[C@H](CCCN=C(N)N)NC(=O)OCc2ccccc2)cc2ccccc12` [ZRRR-MNA, CBZ-Arg-Arg-Arg-MNA], the “Color Score” value is “+++” in test [3]; 1 to 4 in test [4] (Hydrolases added (n = 5), 200 mM substrate film solution, Fast Garnet); “++” in test [5]. Further, the “Color Scores” value was 2 in test [6] (malic acid pH 1.3 / final pH in wells 1.9); 4.5 in test [6] (malic acid pH 1.6 / final pH 2.1, 1st experiment and duplicate); 5 in test [6] (malic acid pH 1.9 / final pH 2.3, 1st experiment and duplicate); 5.5 and 6 in test [6] (malic acid pH 2.2 / final pH 2.4, 1st experiment and duplicate); 5.5 and 5 in test [6] (malic acid pH 2.5 / final pH 2.6, 1st experiment and duplicate); 5 and 3.5 in test [6] (malic acid pH 2.8 / final pH 2.9, 1st experiment and duplicate). For the same molecule, the “Color Scores” value in test [6] (malic acid pH 3.1 / final pH 3.2, 1st experiment and duplicate) is 4.5 and 3; in test [6] (malic acid pH 3.4 / final pH 3.4), 3.

Consider `COc1cc(NC(=O)[C@H](CCCNC(=N)N)NC(=O)[C@@H](NC(=O)OCc2ccccc2)C(C)C)cc2ccccc12` [ZVR, CBZ-Val-Arg-MNA], for which the Color Score is 2.5 to 3 in test [7]; “+++” in test [3]; 4.5 to 5 in test [4] (Hydrolases added (n = 2), 150 mM substrate film solution, Fast Red); 1 to 5 in test [4] (Hydrolases added (n = 4), 320 mM substrate film solution, Fast Garnet); “++” in test [5].
